Source: patent US20070009532A1 (priority 2005, published 2007)

Key:
P450 isoenzyme 3A4 = P450 isoenzyme 3A4 (Homo sapiens, UniProt P08684); details: cited from earlier work
[1] = pharmacokinetic interaction with co-administered oncolytics in preclinical models; type: in vivo; details: several oncolytics tested in preclinical models
P-gp = target: T1, P-gp (Homo sapiens, UniProt P08183); test: substrate for P-gp efflux / duration of reversal activity in resistant cells; type: cell-based
T1 construct: relatively long duration of reversal activity in resistant cells even after the modulator has been withdrawn; endogenous in cells
T1 sequence (P08183 whole entry): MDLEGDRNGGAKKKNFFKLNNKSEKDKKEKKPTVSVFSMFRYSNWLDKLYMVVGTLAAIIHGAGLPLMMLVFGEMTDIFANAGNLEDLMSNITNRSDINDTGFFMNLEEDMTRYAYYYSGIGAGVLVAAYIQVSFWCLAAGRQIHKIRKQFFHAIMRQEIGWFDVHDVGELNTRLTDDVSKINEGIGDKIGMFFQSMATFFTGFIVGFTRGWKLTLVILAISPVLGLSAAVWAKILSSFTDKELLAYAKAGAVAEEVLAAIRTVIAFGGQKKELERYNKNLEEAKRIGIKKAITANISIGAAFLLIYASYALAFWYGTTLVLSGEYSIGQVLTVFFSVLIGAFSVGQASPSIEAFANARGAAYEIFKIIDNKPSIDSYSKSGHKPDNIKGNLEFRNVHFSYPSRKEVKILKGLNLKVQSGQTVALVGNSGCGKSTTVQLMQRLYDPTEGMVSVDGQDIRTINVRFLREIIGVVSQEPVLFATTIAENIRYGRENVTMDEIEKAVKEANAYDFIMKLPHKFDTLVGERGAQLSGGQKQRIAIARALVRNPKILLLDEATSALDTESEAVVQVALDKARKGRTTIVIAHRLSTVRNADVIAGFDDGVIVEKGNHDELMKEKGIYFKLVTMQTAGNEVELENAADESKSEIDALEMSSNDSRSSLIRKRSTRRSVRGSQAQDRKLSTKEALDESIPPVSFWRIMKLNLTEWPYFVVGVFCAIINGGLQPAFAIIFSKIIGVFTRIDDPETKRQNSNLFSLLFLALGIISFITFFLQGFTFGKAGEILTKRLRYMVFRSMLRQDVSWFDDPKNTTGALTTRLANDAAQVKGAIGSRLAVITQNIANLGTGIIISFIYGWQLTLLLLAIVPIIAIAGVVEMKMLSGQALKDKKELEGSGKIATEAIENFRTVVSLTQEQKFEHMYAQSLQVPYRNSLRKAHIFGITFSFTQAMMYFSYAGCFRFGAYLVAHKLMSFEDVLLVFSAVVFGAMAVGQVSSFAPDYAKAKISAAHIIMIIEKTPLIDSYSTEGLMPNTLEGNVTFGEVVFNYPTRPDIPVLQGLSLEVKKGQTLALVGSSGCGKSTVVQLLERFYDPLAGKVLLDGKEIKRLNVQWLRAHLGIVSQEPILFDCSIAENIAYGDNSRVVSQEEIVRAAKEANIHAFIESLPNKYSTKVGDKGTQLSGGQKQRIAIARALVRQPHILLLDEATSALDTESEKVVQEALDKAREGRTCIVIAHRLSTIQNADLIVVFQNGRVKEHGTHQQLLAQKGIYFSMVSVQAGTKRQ

P450 isoenzyme 3A4, sequence (P08684 whole entry): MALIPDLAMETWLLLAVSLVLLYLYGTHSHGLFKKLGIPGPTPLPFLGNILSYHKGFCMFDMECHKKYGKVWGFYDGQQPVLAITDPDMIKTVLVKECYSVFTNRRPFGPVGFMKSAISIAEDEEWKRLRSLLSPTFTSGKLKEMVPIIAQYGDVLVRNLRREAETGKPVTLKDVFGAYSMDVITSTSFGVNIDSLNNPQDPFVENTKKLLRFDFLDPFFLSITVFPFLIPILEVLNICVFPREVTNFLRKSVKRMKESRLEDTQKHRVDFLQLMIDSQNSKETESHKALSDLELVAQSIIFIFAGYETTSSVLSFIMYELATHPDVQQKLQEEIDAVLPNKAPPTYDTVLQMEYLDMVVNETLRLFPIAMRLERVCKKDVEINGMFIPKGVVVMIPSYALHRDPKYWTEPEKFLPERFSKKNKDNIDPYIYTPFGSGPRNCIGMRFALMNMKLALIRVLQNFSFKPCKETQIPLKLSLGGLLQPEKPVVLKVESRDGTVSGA

SMILES	substrate for P450 isoenzyme 3A4 (P450 isoenzyme 3A4)	pharmacokinetic (PK) interactions with oncolytics [1]	substrate for P-gp efflux (P-gp)
COc1cc(C(=O)C(=O)N2CCCC[C@H]2C(=O)OC(CCCc2cccnc2)CCCc2cccnc2)cc(OC)c1OC [biricodar]	substrates for the P450 isoenzyme 3A4	–	–
C/C=C/C[C@@H](C)C(=O)[C@H]1C(=O)N[C@@H](C(C)C)C(=O)N(C)CC(=O)N(C)[C@@H](CC(C)C)C(=O)N[C@@H](C(C)C)C(=O)N(C)[C@@H](CC(C)C)C(=O)N[C@@H](C)C(=O)N[C@H](C)C(=O)N(C)[C@@H](CC(C)C)C(=O)N(C)[C@@H](CC(C)C)C(=O)N(C)[C@@H](C(C)C)C(=O)N1C [valspodar]	substrates for the P450 isoenzyme 3A4	–	–
O[C@@H](COc1cccc2ncccc12)CN1CCN([C@@H]2c3ccccc3[C@@H]3[C@H](c4ccccc42)C3(F)F)CC1 [zosuquidar, (2R)-anti-5-3-[4-(10,11-difluoromethanodibenzosuber-5-y1)piperazin-1-y1]-2-hydroxypropoxy)quinoline]	–	minimal pharmacokinetic (PK) interactions	does not appear to be a substrate for P-gp efflux
